From article PMC7259638, “Characterization of the intestinal absorption of morroniside from Cornus officinalis Sieb. et Zucc via a Caco-2 cell monolayer model” (PLoS ONE, 2020)

How the values were obtained:
Assay in all cases: Effects of influx/efflux transporter inhibitors and CO on morroniside transport in Caco-2 cell monolayers
Type in all cases: in vitro ADME, human
P-gp = conditions: human, Caco-2, pH 7.4, with verapamil 100 μM, 25 μM morroniside; with verapamil 100 μM (P-gp inhibitor)
Description: (§1) An initial stock solution of morroniside in methanol was prepared. The stock solution was then diluted with HBSS (pH = 7.4) and the final concentration of methanol in HBSS remained at 0.5%. […] Caco-2 cells were seeded at a density of 5 × 10^4 cells/cm^2 in a 12-well plate. The transepithelial electrical resistance (TEER) value was measured with a Millipore ERS voltameter (Burlington, MA, USA) in order to evaluate and determine monolayer integrity. The monolayers were ready for experiments 19 to 22 days after seeding.
(§2) During incubation, the culture medium was refreshed every other day. The culture medium was discarded, and 500 μL of HBSS was added to each well and incubated for 20 min at 37 °C. Afterward, each well was rinsed two times with HBSS at 37 °C. Three concentrations of morroniside (5, 25 and 100 μM) were added to either the apical (AP, 0.5 mL) or basolateral side (BL, 1.5 mL), wheras the receiving chamber contained the corresponding volume of blank HBSS medium (pH = 7.4). Incubation was performed at 37 °C for 180 min, with shaking at 50 rpm. To assess drug transport from the AP to BL side, after incubation for 5, 15, 30, 45, 60, 90, 120 or 180 min, 50 μL of the solution from the BL or AP side was collected, and replaced with an equal volume of HBSS. To study the effect of pH on morroniside (5, 25 and 100 μM) transport, the experiments were performed in HBSS, which was adjusted to pH 6.0 or pH 7.4 on the AP side depending on the experiment, and to pH 7.4 on the BL side at 37 °C.
(§3) Efflux and influx transporters were investigated for their effects on the transport flux of morroniside. Several ATP-binding cassette transporter inhibitors, including one p-glycoprotein (P-gp) inhibitor (100μM verapamil); one multidrug resistance- related protein (MRP) inhibitor (100 μM, MK571), one multidrug resistance- related protein 3 (MRP3, the main BL MRP) inhibitor ([…]) and one multidrug resistance- related protein 2 (MRP2, the main AP MRP) inhibitor (200μM indomethacin); and one breast cancer resistance protein (BCRP) inhibitor (25μM apigenin) were used to determine the transporters involved in the efflux transport of morroniside. The inhibition of the influx transport of morroniside transport across the Caco-2 cell monolayer was investigated by the addition of 50 μM sodium vanadate and cimetidine to evaluate the selectivity of Na/K-ATPase. The pH and temperature conditions of this assay were 7.4 and 37 °C, respectively.
(§4) UPLC-MS/MS data acquisition was performed using Analyst 1.5.2 and MultiQuant 2.1.1 software (Applied Biosystems). All data are shown as the mean ± standard deviation, n = 3. The data were analyzed using SPSS 20.0. In the Caco-2 cell model, the rate of transport was obtained from the amount transported versus the time curve using linear regression. The permeability coefficient of each compound was calculated using the following equation: Papp = (dQ/dt)/(A·C0).
(§5) where, dQ/dt is the rate of drug transport, C0 is the initial concentration of the compound in the donor chamber and A represents the surface area of the cell monolayer. The efflux ratio P was determined by calculating the ratio of Papp in the secretory (BA) direction divided by that in the absorptive (AB) direction, according to the following equation: P=PappBA/PappAB

MRP2 = conditions: human, 25 μM morroniside
Description: as §1, §2, §3, §4, §5

MRP3 = conditions: human, 25 μM morroniside
Description: as §1, §2, §3, §4, §5

[1] = tested on: Na+/K+ pump (Na/K-ATPase); conditions: human, Caco-2, pH 7.4, with sodium vanadate 50 μM, with 50 μM sodium vanadate (Na+/K+ pump); read-out: P (efflux ratio PappBA/PappAB)
Description: as §1, §2, §3, §4, §5

MRP = conditions: human, Caco-2, pH 7.4, with MK571 100 μM, 25 μM morroniside
Description: as §1, §2, §3, §4, §5

Caco-2 cell monolayers = conditions: for PappAB (mean): AP to BL; for PappBA (mean): BL to AP; for PappAB / PappBA: pH 7.4, 37 °C
Description: as §1, §2, §3, §4, §5

OATs = conditions: human, Caco-2, pH 7.4, with cimetidine 50 μM, with 50 μM cimetidine (OATs); read-out: P (efflux ratio PappBA/PappAB)
Description: as §1, §2, §3, §4, §5

[2] = 25 μM morroniside, with verapamil 100 μM
[3] = after 0.63 mg/mL CO (containing 25 μM morroniside) was added
[4] = with 50 μM sodium vanadate (Na+/K+ pump)

efflux ratio at 180 min, 25 μM (P-gp): 1.59 | efflux ratio at 180 min, 25 μM (MRP2; Caco-2, pH 7.4, with indomethacin 200 μM, with indomethacin 200 μM (MRP2 inhibitor), read-out: Efflux ratio P): 0.26 | Papp A→B at 180 min, 25 μM (MRP2; Caco-2, pH 7.4, AP to BL, with indomethacin 200 μM, read-out: PappAB (mean)): 12.8 ×10⁻⁶ cm/s | Papp B→A at 180 min, 25 μM (MRP2; Caco-2, pH 7.4, BL to AP, with indomethacin 200 μM, read-out: PappBA (mean)): 3.3 ×10⁻⁶ cm/s | efflux ratio at 180 min, 25 μM (MRP3; Caco-2, pH 7.4, with benzbromarone 50 μM, with benzbromarone 50 μM (MRP3 inhibitor), read-out: Efflux ratio P): 1.72 | Papp A→B at 180 min, 25 μM (MRP3; Caco-2, pH 7.4, AP to BL, with benzbromarone 50 μM, read-out: PappAB (mean)): 1.77 ×10⁻⁶ cm/s | efflux ratio at 180 min [1]: 1.65 | efflux ratio at 180 min, 25 μM (MRP; with MK 571 100 μM (MRP inhibitor), read-out: Efflux ratio P): 0.4 | Papp A→B at 180 min, 25 μM (MRP; AP to BL, with MK 571 100 μM, read-out: PappAB (mean)): 7.55 ×10⁻⁶ cm/s | Papp B→A at 180 min, 25 μM (MRP; BL to AP, with MK 571 100 μM, read-out: PappBA (mean)): 3.01 ×10⁻⁶ cm/s | PappAB (mean) (Caco-2 cell monolayers; 25 μM morroniside, Control): 1.9 ×10⁻⁶ cm/s | PappAB (mean) (Caco-2 cell monolayers; 25 μM morroniside, with apigenin 25 μM): 6.12 ×10⁻⁶ cm/s | PappAB (mean) (Caco-2 cell monolayers; [2]): 1.84 ×10⁻⁶ cm/s | PappBA (mean) (Caco-2 cell monolayers; 25 μM morroniside, Control): 3.06 ×10⁻⁶ cm/s | PappBA (mean) (Caco-2 cell monolayers; 25 μM morroniside, with benzbromarone 50 μM): 3.04 ×10⁻⁶ cm/s | PappBA (mean) (Caco-2 cell monolayers; [2]): 2.93 ×10⁻⁶ cm/s | change of PappAB vs control (Caco-2 cell monolayers; 25 μM morroniside, after addition of apigenin (25 μM), p < 0.05): increased significantly | decrease in the efflux ratio (Caco-2 cell monolayers; 25 μM morroniside, after addition of apigenin (25 μM), vs control): 72.05% | PappAB (mean) (Caco-2 cell monolayers; morroniside given as CO 0.63 mg/mL (containing 25 μM morroniside), in 1e-6 cm/s): 4.284 | PappBA (mean) (Caco-2 cell monolayers; morroniside given as CO 0.63 mg/mL (containing 25 μM morroniside)): 2.11 ×10⁻⁶ cm/s | PappAB (Caco-2 cell monolayers; Control (no inhibitor), influx transporter experiment): 1.90±0.5 ×10^-6cm/s | change of PappAB vs control (Caco-2 cell monolayers; [3]): increased significantly | change of PappBA vs control (Caco-2 cell monolayers; [3]): not significantly different | change of PappAB vs control (Caco-2 cell monolayers; after MK 571 was added): increased | change of PappBA vs control (Caco-2 cell monolayers; after MK 571 was added): no effect | change of AP to BL flux (PappAB) vs control (Caco-2 cell monolayers; after indomethacin was added, p < 0.001): significant increase | change of PappAB and PappBA vs control (Caco-2 cell monolayers; before and after addition of verapamil): did not change significantly | change of PappAB or PappBA vs control (Caco-2 cell monolayers; cotreatment with 200 μM benzbromarone): did not alter | BCRP substrate status (Caco-2 cell monolayers; from effect of apigenin (25 μM, BCRP inhibitor)): substrate of BCRP | MRP2 substrate status (Caco-2 cell monolayers; from effect of indomethacin (MRP2 inhibitor) on AP to BL flux): substrate of MRP2 | P-gp involvement in transport (Caco-2 cell monolayers; from effect of verapamil (P-gp inhibitor)): might not be involved | PappAB (Caco-2 cell monolayers; with 50 μM cimetidine (OATs)): 1.82±0.5 ×10^-6cm/s | PappBA (Caco-2 cell monolayers; with 50 μM cimetidine (OATs)): 3.1±0.7 ×10^-6cm/s | PappAB (Caco-2 cell monolayers; [4]): 1.89±0.4 ×10^-6cm/s | PappBA (Caco-2 cell monolayers; [4]): 3.11±0.7 ×10^-6cm/s | efflux ratio at 180 min (OATs): 1.7
SMILES: COC(=O)C1=CO[C@@H](O[C@@H]2O[C@H](CO)[C@@H](O)[C@H](O)[C@H]2O)[C@@H]2[C@H](C)O[C@@H](O)C[C@H]12 [morroniside, Morroniside]
change of morroniside transport vs control (Caco-2 cell monolayers; with 50 μM cimetidine): did not significantly increase or decrease | change of morroniside transport vs control (Caco-2 cell monolayers; with 50 μM sodium vanadate): did not significantly increase or decrease
